Measurements taken from US20050228016A1, “TETRAHYDROQUINOLINES FOR MODULATING THE EXPRESSION OF EXOGENOUS GENES VIA AN ECDYSONE RECEPTOR COMPLEX” (priority 2002, published 2005).

Key:
[1] = tested on: GAL4 DBD-CfEcR(DEF)/VP16AD-MmRXRE; settings: CHO 13B3 clone, 48 h, average of two wells
Excerpt: GAL4 DBD-CfEcR(DEF)/VP16AD-MmRXRE: The wild-type D, E, and F domains from spruce budworm Choristoneura fumiferana EcR (“CfEcR-DEF”; SEQ ID NO: 1) were fused to a GAL4 DNA binding domain (“Gal4DBD1-147”; nucleotides 31 to 471 of SEQ ID NO: 2) and placed under the control of the SV40e promoter of pM vector (PT3119-5, Clontech, Palo Alto, Calif.). The D and E domains from Mus Musculus RXR (“MmRXR-DE”; SEQ ID NO: 22) were fused to the transactivation domain from VP16 (“VP16AD”; SEQ ID NO: 5) and placed under the control of the SV40e promoter of the pVP16 vector (PT3127-5, Clontech, Palo Alto, Calif.).
CHO cells were transiently transfected with transcription cassettes for GAL4 DBD-CfEcR(DEF) and for VP16AD-MmRXRE controlled by SV40e promoters. Stably transfected cells were selected using Hygromycin. Individually isolated CHO cell clones were transiently transfected with a GAL4 RE-luciferase reporter (pFR-Luc, Stratagene, La Jolla, Calif.). The 13B3 clone was selected using Zeocin.
Cells were trypsinized and diluted to a concentration of 2.5×10^4 cells mL. 100 μL of cell suspension was placed in each well of a 96 well plate and incubated at 37° C. under 5% CO2 for 24 h. Ligand stock solutions were prepared in DMSO and diluted 300 fold for all treatments.
Luciferase reporter gene expression was measured 48 h after cell treatment using Bright-Glo™ Luciferase Assay System from Promega (E2650). Luminescence was detected at room temperature using a Dynex MLX microtiter plate luminometer.
Each assay was conducted in two separate wells, and the two values were averaged. Fold inductions were calculated by dividing relative light units (“RLU”) in ligand treated cells with RLU in DMSO treated cells.

Gal4DBD/AaEcR (DEF) = biological target: T1, Gal4DBD/AaEcR (DEF) (Aedes aegypti, UniProt P49880); test: cell-based; type: cell-based; settings: 33 μM; 3T3 cells; 48 h; average of two wells
T1 construct: The wildtype D, E, and F domains from mosquito Aedes aegypti EcR; expressed in transfected cells; host or cells: 3T3 cells
In short: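 Mouse 3T3 cells transiently co-transfected with Gal4DBD/AaEcR (DEF) and pFRLuc (5× GAL4 response element, firefly luciferase reporter). Ligand added in serum medium 4 h after transfection; single-dose testing at 33 μM.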

[2] = biological target: T2, Bombyx mori EcR (VP16-BmEcR, CVBE) (Bombyx mori, UniProt P49881); test: Z3 assay (HEK-293 clone Z3 with CVBE and 6x EcRE LacZ, β-galactosidase reporter); type: cell-based; settings: 48 h, average of two wells
T2 construct: expressed in transfected cells
T2 sequence (P49881 86-606): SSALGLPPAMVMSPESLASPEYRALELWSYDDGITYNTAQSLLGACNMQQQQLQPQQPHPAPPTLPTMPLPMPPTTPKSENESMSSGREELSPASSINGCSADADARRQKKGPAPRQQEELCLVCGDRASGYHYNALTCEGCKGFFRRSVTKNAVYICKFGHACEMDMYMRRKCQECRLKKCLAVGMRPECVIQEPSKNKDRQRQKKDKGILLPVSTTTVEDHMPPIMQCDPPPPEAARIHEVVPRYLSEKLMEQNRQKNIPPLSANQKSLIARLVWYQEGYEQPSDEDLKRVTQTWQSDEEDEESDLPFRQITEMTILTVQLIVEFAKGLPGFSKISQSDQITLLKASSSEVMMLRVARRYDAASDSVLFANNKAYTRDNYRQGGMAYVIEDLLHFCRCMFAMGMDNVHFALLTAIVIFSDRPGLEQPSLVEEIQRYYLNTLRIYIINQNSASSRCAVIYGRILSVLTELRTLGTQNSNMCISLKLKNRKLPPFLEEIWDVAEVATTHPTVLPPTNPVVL

T1 sequence (P28704 286-520 A311G/G315S/G445S/I449V): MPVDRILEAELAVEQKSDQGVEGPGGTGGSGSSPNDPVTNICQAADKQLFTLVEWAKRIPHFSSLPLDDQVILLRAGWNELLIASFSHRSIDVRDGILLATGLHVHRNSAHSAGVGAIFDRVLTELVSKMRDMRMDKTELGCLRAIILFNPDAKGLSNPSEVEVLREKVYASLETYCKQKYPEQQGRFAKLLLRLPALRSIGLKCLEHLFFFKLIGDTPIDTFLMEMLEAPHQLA
T1 sequence (P49880 405-776): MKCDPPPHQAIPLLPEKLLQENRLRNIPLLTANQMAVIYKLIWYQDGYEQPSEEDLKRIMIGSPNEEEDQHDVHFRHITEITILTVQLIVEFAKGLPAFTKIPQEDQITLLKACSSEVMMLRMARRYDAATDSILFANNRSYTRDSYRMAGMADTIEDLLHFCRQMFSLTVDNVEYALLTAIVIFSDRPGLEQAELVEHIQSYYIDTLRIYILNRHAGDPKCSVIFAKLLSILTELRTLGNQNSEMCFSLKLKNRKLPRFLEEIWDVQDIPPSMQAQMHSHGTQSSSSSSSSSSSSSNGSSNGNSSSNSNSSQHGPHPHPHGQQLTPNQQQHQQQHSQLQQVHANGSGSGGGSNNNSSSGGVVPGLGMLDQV

Row | Compound | Fold Induction Average, 13B3V1 Assay 33 μM [1] | Fold Induction Average, AA_3T3V1 Assay 33 μM (Gal4DBD/AaEcR (DEF)) | Fold Induction Average, Z3V1 Assay 33 μM [2]
1 | Cc1ccc(C(=O)N2c3ccccc3C(Nc3ccccc3)CC2C)cc1 (mixture of isomers) [Compound I-39] | 1 fold | 182 fold | 4 fold
2 | Cc1ccc(C(=O)N2c3ccccc3C(Nc3ccccc3Cl)CC2C)cc1 (mixture of isomers) [Compound I-41] | 1 fold | 2 fold | 1 fold
3 | C[C@H]1C[C@H](Nc2ccccc2)c2ccccc2N1C(=O)c1ccc(F)c(F)c1 (relative stereo) [Compound I-15] | 1 fold | 132 fold | 20 fold
4 | Cc1ccc(C(=O)N2c3ccccc3[C@@H](Nc3ccccc3)C[C@@H]2C)cc1F (relative stereo) [Compound I-16] | 1 fold | 376 fold | 27 fold
5 | C[C@H]1C[C@H](Nc2ccccc2)c2ccccc2N1C(=O)c1ccc(C(F)(F)F)c(F)c1 (relative stereo) [Compound I-17] | 1 fold | 135 fold | 9 fold
6 | Cc1ccc(N[C@H]2C[C@H](C)N(C(=O)c3ccc(C)c(F)c3)c3ccc(C)cc32)cc1 (relative stereo) [Compound I-22] | 1 fold | 132 fold | 3 fold
7 | C[C@H]1C[C@H](Nc2ccc(F)cc2)c2cc(F)ccc2N1C(=O)c1ccc(F)c(F)c1 (relative stereo) [Compound I-26] | 95 fold | 124 fold | 152 fold
8 | C[C@H]1C[C@H](Nc2ccc(F)cc2)c2cc(F)ccc2N1C(=O)c1ccc(C(F)(F)F)c(F)c1 (relative stereo) [Compound I-27] | 6 fold | 112 fold | 119 fold
9 | Cc1ccc(N[C@@H]2C[C@H](C)N(C(=O)c3ccc(C)c(F)c3)c3ccc(C)cc32)cc1 (relative stereo) [Compound I-28] | 1 fold | 1 fold | 1 fold
10 | C[C@H]1C[C@@H](Nc2ccccc2)c2ccccc2N1C(=O)c1ccc2c(c1)OCO2 (relative stereo) [Compound I-31] | 1 fold | 48 fold | 1 fold
11 | COc1ccc(C=CC(=O)N2c3ccccc3[C@@H](Nc3ccccc3)C[C@@H]2C)cc1OC (relative stereo) [Compound I-146] | 1 fold | 4 fold | 1 fold
12 | COc1ccc(C(=O)N2c3ccc(C)cc3[C@H](Nc3ccc(C)cc3)C[C@@H]2C)cc1 (stereo in doubt) [Compound I-152] | 2 fold | 1 fold | 1 fold
13 | Cc1ccc(NC2CC(C)N(C(=O)c3ccc4c(c3)OCO4)c3ccc(C)cc32)cc1 (centres unmarked) [Compound I-34] | 1 fold | 1 fold | 1 fold
14 | COc1cccc(C(=O)N2c3ccccc3C(Nc3ccccc3)CC2C)c1C (centres unmarked) [Compound I-50] | 1 fold | 21 fold | 115 fold
15 | COc1cccc(C(=O)N2c3ccc(F)cc3C(Nc3ccc(F)cc3)CC2C)c1C (centres unmarked) [Compound I-58] | 30 fold | 124 fold | 147 fold
16 | CC(=O)N(c1ccccc1)C1CC(C)N(C(=O)C=Cc2ccccc2)c2ccccc21 (centres unmarked) [Compound I-119] | 3 fold | 1 fold | 1 fold
17 | COc1ccc(C(=O)N(c2ccccc2)C2CC(C)N(C(=O)c3ccc(Cl)cc3)c3ccccc32)cc1 (centres unmarked) [Compound I-120] | 1 fold | 249 fold | –
18 | Cc1ccc(NC2CC(C)N(C(=O)c3ccc(F)cc3)c3ccc(C)cc32)cc1 (centres unmarked) [Compound I-124] | 3 fold | 1 fold | –
19 | COc1ccc(C(=O)N2c3ccccc3C(N(C(=O)c3cccs3)c3ccccc3)CC2C)cc1 (centres unmarked) [Compound I-131] | 1 fold | 162 fold | 4 fold
20 | CCCCCc1ccc(C(=O)N2c3ccccc3C(Nc3ccccc3)CC2C)cc1 (centres unmarked) [Compound I-138] | 1 fold | 5 fold | 1 fold
21 | COc1cccc(N(C(C)=O)C2CC(C)N(C(=O)c3ccccc3)c3ccccc32)c1 (centres unmarked) [Compound I-140] | 2 fold | 1 fold | 1 fold
22 | Cc1ccc(NC2CC(C)N(C(=O)c3ccc(Cl)cc3)c3ccc(C)cc32)cc1 (centres unmarked) [Compound I-144] | 4 fold | 73 fold | 1 fold
23 | CC(=O)N(c1ccc(C)cc1)C1CC(C)N(C(=O)c2ccccc2)c2ccccc21 (centres unmarked) [Compound I-149] | 3 fold | 1 fold | –
24 | Cc1ccc(C(=O)N(c2ccccc2)C2CC(C)N(C(=O)c3ccc(Cl)cc3)c3ccccc32)cc1 (centres unmarked) [Compound I-161] | 1 fold | 28 fold | –
25 | CC(=O)N1c2ccccc2C(N(C(=O)c2ccccc2F)c2ccccc2)CC1C (centres unmarked) [Compound I-185] | 1 fold | – | 1 fold
26 | Cc1ccc(N(C(=O)c2ccc3c(c2)OCO3)C2CC(C)N(C(=O)c3ccc4c(c3)OCO4)c3ccc(C)cc32)cc1 (centres unmarked) [Compound I-194] | 1 fold | – | –
